Seven compounds from US10385024B2, “Compounds and methods for inhibiting NHE-mediated antiport in the treatment of disorders associated with fluid retention or salt overload and gastrointestinal tract disorders” (Ardelyx, Inc., priority 2012, dated 2019) can be followed below.

The subject of test [1] is absorption of sodium from the intestinal lumen. In words: Inhibition of intestinal sodium absorption (urinary sodium and fecal form). The class given is in vivo, Sprague-Dawley rats. The note with it: rat; for response vs control in vivo at 3 mg/kg: 3 mg/kg oral gavage, urine 16 h post-dose, asterisks = significance vs vehicle (*P<0.05, **P<0.01, ***P<0.001), read-out: uNa (% of vehicle); for FFS: fecal form score, scale 1 (normal pellet) to 5 (liquid fecal streams), group average, 3 mg/kg oral, 16 h post-dose, vehicle = 1. The protocol: Urinary sodium concentration and fecal form were measured to assess the ability of selected example compounds to inhibit the absorption of sodium from the intestinal lumen. Eight-week old Sprague-Dawley rats were purchased from Charles River Laboratories (Hollister, Calif.), were housed 2 per cage, and acclimated for at least 3 days before study initiation. Animals were fed Harlan Teklad Global 2018 rodent chow (Indianapolis, Ind.) and water ad libitum throughout the study and maintained in a standard light/dark cycle of 6 AM to 6 PM. On the day of the study, between 4 PM and 5 PM, a group of rats (n=6) were dosed via oral gavage with test compound at the dosage indicated or vehicle (water) at a volume of 10 mL/kg. After dose administration animals were placed in individual metabolic cages where they were also fed the same chow in meal form and watered ad libitum. At 16 h post-dose, the urine samples were collected and fecal form was assessed by two independent observations. Fecal forms were scored according to a common scale associated with increasing fecal water to the wettest observation in the cage's collection funnel (1, normal pellet; 2, pellet adhering to sides of collection funnel due to moisture; 3, loss of normal pellet shape; 4, complete loss of shape with a blotting pattern; 5, liquid fecal streams evident). A rat's fecal form score (FFS) was determined by averaging both observational scores for all rats within a group (n=6). In every study the vehicle group average was 1. For urine samples, the volumes were determined gravimetrically and centrifuged at 3,600×g. The supernatants were diluted 100-fold in deionized Milli-Q water then filtered through a 0.2 μm GHP Pall AcroPrep filter plate (Pall Life Sciences, Ann Arbor, Mich.) prior to analysis by ion chromatography. Ten microliters of each filtered extract was injected onto a Dionex ICS-3000 ion chromatograph system (Dionex, Sunnyvale, Calif.). Cations were separated by an isocratic method using 25 mM methanesulfonic acid as the eluent on an IonPac CS12A 2 mm i.d.×250 mm, 8 μm particle size cation exchange column (Dionex). Sodium was quantified using standards prepared from a cation standard mix containing Li^+, Na^+, NH4^+, K^+, Mg^2+, and Ca^2+ (Dionex). The mean mass of sodium urinated for every group in the 16 h period was determined with the vehicle group usually urinating approximately 21 mg sodium. The urine Na (uNa) for rats in the test groups were expressed as a percentage of the vehicle mean and the means were compared to that of the vehicle group by utilizing a one-way analysis of variance coupled with a Dunnett's post hoc test.

The target of test [2] is T1, Rat NHE-3 (Rattus norvegicus, UniProt P26433).
T1 construct: expressed in transfected cells; host or cells: Opossum kidney (OK) cells (ATCC), transfected by electroporation
T1 sequence (P26433 29-831): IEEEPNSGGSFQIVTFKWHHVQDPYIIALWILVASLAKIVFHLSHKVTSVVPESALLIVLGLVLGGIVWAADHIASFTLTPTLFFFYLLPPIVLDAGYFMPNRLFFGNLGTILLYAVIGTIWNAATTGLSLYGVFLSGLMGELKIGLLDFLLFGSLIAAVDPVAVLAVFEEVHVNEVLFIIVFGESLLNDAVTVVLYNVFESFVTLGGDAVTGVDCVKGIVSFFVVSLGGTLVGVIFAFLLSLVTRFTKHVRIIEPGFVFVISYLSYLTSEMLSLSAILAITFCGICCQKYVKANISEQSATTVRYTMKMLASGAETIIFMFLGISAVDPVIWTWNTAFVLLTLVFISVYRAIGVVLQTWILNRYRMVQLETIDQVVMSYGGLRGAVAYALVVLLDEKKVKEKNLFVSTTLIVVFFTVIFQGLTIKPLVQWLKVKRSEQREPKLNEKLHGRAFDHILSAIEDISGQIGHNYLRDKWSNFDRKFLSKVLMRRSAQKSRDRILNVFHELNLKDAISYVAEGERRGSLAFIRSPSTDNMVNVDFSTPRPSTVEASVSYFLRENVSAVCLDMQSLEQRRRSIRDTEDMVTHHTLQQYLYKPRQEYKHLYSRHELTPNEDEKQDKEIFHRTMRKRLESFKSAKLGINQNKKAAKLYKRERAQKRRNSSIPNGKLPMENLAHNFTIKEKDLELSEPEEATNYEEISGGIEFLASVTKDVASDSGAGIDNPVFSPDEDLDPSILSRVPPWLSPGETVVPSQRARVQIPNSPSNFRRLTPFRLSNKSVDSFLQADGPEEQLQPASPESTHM
In words: Cell-based assay of NHE-3 activity (rat NHE-3 prompt inhibition). The note with it: OK cells with rat NHE-3 gene, compound present during pH recovery; for IC50: read-out: Rat NHE3 pIC50 (prompt) (converted). The essentials: (§1)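 Opossum kidney cells electroporated with rat or human NHE-3, loaded with 5 μM BCECF-AM in NH4Cl-HEPES pH 7.4 for 30 min at RT, then acidified 10 min in Na+-free choline HEPES. Na+-dependent pH recovery rates from BCECF fluorescence, averaged over ≥2 replicates, gave pIC50.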

Test [3] concerns the target T1, Rat NHE-3. The test can be described thus: Cell-based assay of NHE-3 activity (persistent inhibition, after washout). The following applies: OK cells with rat NHE-3 gene, 60 min incubation, recovery initiated 40 min after compound washout; for IC50: read-out: Rat NHE3 pIC50 (persistent) (converted). The essentials: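 OK cells transiently expressing rat NHE-3 were exposed to 0-30 μM compound in NaCl-HEPES pH 7.4 for 60 min, then washed free of drug before NH4Cl/BCECF-AM loading and acid-loading in Na+-free choline buffer. Na+-dependent pH recovery rates (mean of ≥2 replicates) gave pIC50.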

Another test deals with T2, human NHE-3 (Homo sapiens, UniProt P48764).
T2 construct: expressed in transfected cells; host or cells: Opossum kidney (OK) cells (ATCC), transfected by electroporation
T2 sequence (P48764 26-834): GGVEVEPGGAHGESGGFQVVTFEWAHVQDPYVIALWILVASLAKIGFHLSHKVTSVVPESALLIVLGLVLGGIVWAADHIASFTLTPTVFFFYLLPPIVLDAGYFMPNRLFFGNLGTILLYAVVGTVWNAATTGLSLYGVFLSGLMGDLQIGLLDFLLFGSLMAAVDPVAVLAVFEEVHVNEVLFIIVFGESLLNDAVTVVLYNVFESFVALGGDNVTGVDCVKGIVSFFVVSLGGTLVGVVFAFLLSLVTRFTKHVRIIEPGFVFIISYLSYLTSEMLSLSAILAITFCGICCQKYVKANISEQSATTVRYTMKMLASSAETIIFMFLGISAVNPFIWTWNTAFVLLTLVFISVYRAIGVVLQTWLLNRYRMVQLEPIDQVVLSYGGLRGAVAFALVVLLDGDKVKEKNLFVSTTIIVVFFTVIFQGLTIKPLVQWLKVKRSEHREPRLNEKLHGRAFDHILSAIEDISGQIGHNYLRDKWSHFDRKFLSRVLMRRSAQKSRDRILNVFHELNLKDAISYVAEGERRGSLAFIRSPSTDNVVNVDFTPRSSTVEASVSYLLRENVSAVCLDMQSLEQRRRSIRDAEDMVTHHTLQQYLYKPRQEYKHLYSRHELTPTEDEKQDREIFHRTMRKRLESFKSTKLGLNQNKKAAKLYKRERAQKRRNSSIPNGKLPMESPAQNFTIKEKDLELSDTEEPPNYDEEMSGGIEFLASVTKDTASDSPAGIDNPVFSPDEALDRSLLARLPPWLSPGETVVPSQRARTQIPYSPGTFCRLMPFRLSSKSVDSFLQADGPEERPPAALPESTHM
In words: Cell-based assay of NHE-3 activity (human NHE3 inhibition assay). The note with it: OK cells with human NHE-3 gene, BCECF pH dye, 0-30 μM test compound; for IC50: read-out: Human NHE3 pIC50 (converted). In short, it runs like this:
as §1

As to `CN1Cc2c(Cl)cc(Cl)cc2[C@H](c2cccc(S(=O)(=O)NCCOCCOCCNC(=O)CCC(CCC(=O)NCCOCCOCCNS(=O)(=O)c3cccc([C@@H]4CN(C)Cc5c(Cl)cc(Cl)cc54)c3)(CCC(=O)NCCOCCOCCNS(=O)(=O)c3cccc([C@@H]4CN(C)Cc5c(Cl)cc(Cl)cc54)c3)NS(C)(=O)=O)c2)C1` [Example 5, N^1,N^7-bis(2-(2-(2-(3-((S)-6,8-dichloro-2-methyl-1,2,3,4-tetrahydroisoquinolin-4-yl)phenylsulfonamido)ethoxy)ethoxy)ethyl)-4-(3-(2-(2-(2-(3-((S)-6,8-dichloro-2-methyl-1,2,3,4-tetrahydroisoquinolin-4-yl)phenylsulfonamido)ethoxy)ethoxy)ethylamino)-3-oxopropyl)-4-(methylsulfonamido)heptanediamide], the response vs control in vivo at 3 mg/kg in test [1] is 35 to 75%. Further, the IC50 was 100 to 10000 nM on Rat NHE-3 [2], < 100 nM at Rat NHE-3 [3] and 100 to 10000 nM on human NHE-3.
Turning to `CN1Cc2c(Cl)cc(Cl)cc2[C@H](c2cccc(S(=O)(=O)NCCOCCOCCNC(=O)CCC(CCC(=O)NCCOCCOCCNS(=O)(=O)c3cccc([C@@H]4CN(C)Cc5c(Cl)cc(Cl)cc54)c3)(CCC(=O)NCCOCCOCCNS(=O)(=O)c3cccc([C@@H]4CN(C)Cc5c(Cl)cc(Cl)cc54)c3)NC(N)=O)c2)C1` [Example 8, N1,N7-bis(2-(2-(2-(3-((S)-6,8-dichloro-2-methyl-1,2,3,4-tetrahydroisoquinolin-4-yl)phenylsulfonamido)ethoxy)ethoxy)ethyl)-4-(3-(2-(2-(2-(3-((S)-6,8-dichloro-2-methyl-1,2,3,4-tetrahydroisoquinolin-4-yl)phenylsulfonamido)ethoxy)ethoxy)ethylamino)-3-oxopropyl)-4-ureidoheptanediamide], the response vs control in vivo at 3 mg/kg in test [1] is < 35%. Also, the values for the IC50 at Rat NHE-3 [2], at Rat NHE-3 [3] and at human NHE-3 were 100 to 10000 nM, < 100 nM and < 100 nM, respectively.
Consider `CN1Cc2c(Cl)cc(Cl)cc2[C@H](c2cccc(S(=O)(=O)NCCOCCOCCOCCNC(=O)CCC(N)(CCC(=O)NCCOCCOCCOCCNS(=O)(=O)c3cccc([C@@H]4CN(C)Cc5c(Cl)cc(Cl)cc54)c3)CCC(=O)NCCOCCOCCOCCNS(=O)(=O)c3cccc([C@@H]4CN(C)Cc5c(Cl)cc(Cl)cc54)c3)c2)C1` [Example 9, 4-amino-4-(1-(3-((S)-6,8-dichloro-2-methyl-1,2,3,4-tetrahydroisoquinolin-4-yl)phenylsulfonamido)-13-oxo-3,6,9-trioxa-12-azapentadecan-15-yl)-N^1,N^7-bis(2-(2-(2-(2-(3-((S)-6,8-dichloro-2-methyl-1,2,3,4-tetrahydroisoquinolin-4-yl)phenylsulfonamido)ethoxy)ethoxy)ethoxy)ethyl)heptanediamide], for which, in test [1], the response vs control in vivo at 3 mg/kg was < 35%. For the same compound, the IC50 at Rat NHE-3 [2], on Rat NHE-3 [3] and at human NHE-3 was < 100 nM each time.
In turn, `CCC(=O)NC(CCC(=O)NCCOCCOCCOCCNS(=O)(=O)c1cccc([C@@H]2CN(C)Cc3c(Cl)cc(Cl)cc32)c1)(CCC(=O)NCCOCCOCCOCCNS(=O)(=O)c1cccc([C@@H]2CN(C)Cc3c(Cl)cc(Cl)cc32)c1)CCC(=O)NCCOCCOCCOCCNS(=O)(=O)c1cccc([C@@H]2CN(C)Cc3c(Cl)cc(Cl)cc32)c1` [Example 10, 4-(1-(3-((S)-6,8-dichloro-2-methyl-1,2,3,4-tetrahydroisoquinolin-4-yl)phenylsulfonamido)-13-oxo-3,6,9-trioxa-12-azapentadecan-15-yl)-N1,N7-bis(2-(2-(2-(2-(3-((S)-6,8-dichloro-2-methyl-1,2,3,4-tetrahydroisoquinolin-4-yl)phenylsulfonamido)ethoxy)ethoxy)ethoxy)ethyl)-4-propionamidoheptanediamide] registered an FFS in test [1] of 2. The response vs control in vivo at 3 mg/kg in test [1] was in the range of 35 to 75%. The IC50 on Rat NHE-3 [2], at Rat NHE-3 [3] and on human NHE-3 was < 100 nM each time.
In turn, `CN1Cc2c(Cl)cc(Cl)cc2[C@H](c2cccc(S(=O)(=O)NCCOCCOCCNC(=O)CCC(CCC(=O)NCCOCCOCCNS(=O)(=O)c3cccc([C@@H]4CN(C)Cc5c(Cl)cc(Cl)cc54)c3)(CCC(=O)NCCOCCOCCNS(=O)(=O)c3cccc([C@@H]4CN(C)Cc5c(Cl)cc(Cl)cc54)c3)NC(=O)N[C@@H](CC(=O)O)C(=O)O)c2)C1` [Example 12, (S)-2-(3-(1,25-bis(3-((S)-6,8-dichloro-2-methyl-1,2,3,4-tetrahydroisoquinolin-4-yl)phenylsulfonamido)-13-(3-(2-(2-(2-(3-((S)-6,8-dichloro-2-methyl-1,2,3,4-tetrahydroisoquinolin-4-yl)phenylsulfonamido)ethoxy)ethoxy)ethylamino)-3-oxopropyl)-10,16-dioxo-3,6,20,23-tetraoxa-9,17-diazapentacosan-13-yl)ureido)succinic acid] showed an FFS in test [1] of 3. Besides, in test [1], the response vs control in vivo at 3 mg/kg was 35 to 75%. In addition, the IC50 on Rat NHE-3 [2], on Rat NHE-3 [3] and on human NHE-3 was < 100 nM throughout.
Regarding `CN1Cc2c(Cl)cc(Cl)cc2[C@H](c2cccc(S(=O)(=O)NCCOCCOCCNC(=O)CCC(CCC(=O)NCCOCCOCCNS(=O)(=O)c3cccc([C@@H]4CN(C)Cc5c(Cl)cc(Cl)cc54)c3)(CCC(=O)NCCOCCOCCNS(=O)(=O)c3cccc([C@@H]4CN(C)Cc5c(Cl)cc(Cl)cc54)c3)NC(=O)N(C)C)c2)C1` [Example 25], in test [1], the response vs control in vivo at 3 mg/kg is < 35%. The “Rat NHE3 pIC50 (prompt)” value at Rat NHE-3 [2] is recorded as “B (B NHE3 pIC50 5-7)”. For the same compound, at Rat NHE-3 [3], the “Rat NHE3 pIC50 (persistent)” value is “C (C NHE3 pIC50 > 7)”. For the same compound, the “Human NHE3 pIC50” value at human NHE-3 is given as “B (B NHE3 pIC50 5-7)”.
As for `CNC(=O)NC(CCC(=O)NCCOCCOCCNS(=O)(=O)c1cccc([C@@H]2CN(C)Cc3c(Cl)cc(Cl)cc32)c1)(CCC(=O)NCCOCCOCCNS(=O)(=O)c1cccc([C@@H]2CN(C)Cc3c(Cl)cc(Cl)cc32)c1)CCC(=O)NCCOCCOCCNS(=O)(=O)c1cccc([C@@H]2CN(C)Cc3c(Cl)cc(Cl)cc32)c1` [Example 26], the response vs control in vivo at 3 mg/kg in test [1] is < 35%. Further, on Rat NHE-3 [2], the “Rat NHE3 pIC50 (prompt)” value is “B (B NHE3 pIC50 5-7)”. Further, the “Rat NHE3 pIC50 (persistent)” value on Rat NHE-3 [3] is “C (C NHE3 pIC50 > 7)”. At human NHE-3, the “Human NHE3 pIC50” value is recorded as “C (C NHE3 pIC50 > 7)”.
